The target of the assay is Apoptosis regulator Bcl-2 (Homo sapiens, UniProt P10415). The assay is described as follows: PubChem AID 950.
The mark [1] stands for this setting: inactive by the depositor's call.

Sequence of Apoptosis regulator Bcl-2 (P10415 whole entry): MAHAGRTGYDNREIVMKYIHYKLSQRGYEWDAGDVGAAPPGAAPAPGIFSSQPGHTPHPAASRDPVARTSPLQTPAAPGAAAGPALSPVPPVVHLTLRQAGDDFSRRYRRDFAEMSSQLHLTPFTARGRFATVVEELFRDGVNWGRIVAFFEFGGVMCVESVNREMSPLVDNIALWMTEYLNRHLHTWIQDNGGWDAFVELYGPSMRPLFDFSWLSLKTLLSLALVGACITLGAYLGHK

What is called EC50 is the concentration at which the effect is half-maximal. Higher therefore signals a less potent agent. The molecule `Clc1nss/c1=N\c1ccc(Br)cc1` [N-(4-bromophenyl)-4-chloro-5-dithiazolimine] came in with an EC50 under setting [1] of 49.8 µM. This counts as double-digit micromolar.
Same read-out and setting: in the case of `COc1ccc(CCNC(=O)c2ccc3nc(-c4ccco4)c(-c4ccco4)nc3c2)cc1OC` [N-[2-(3,4-dimethoxyphenyl)ethyl]-2,3-di-2-furylquinoxaline-6-carboxamide] it was 13.6 µM; in that of `O=C(NC1=C(NC2CCS(=O)(=O)C2)C(=O)c2ccccc2C1=O)c1ccccc1` (stereo not given) [N-[3-[(1,1-dioxo-3-thiolanyl)amino]-1,4-dioxo-2-naphthalenyl]benzamide], 19.7 µM.
Same read-out and setting: the value for `Cc1cccc(OCC(=O)NCC(=O)NN=Cc2cc(Br)ccc2OCc2ccccc2)c1` [N-[(5-bromanyl-2-phenylmethoxy-phenyl)methylideneamino]-2-[2-(3-methylphenoxy)ethanoylamino]ethanamide] was 5.73 µM.
Molecule `CCC(=O)N(CC)C1C(=O)C(=O)c2ccccc2C1=O` (stereo not given) [N-ethyl-N-(1-hydroxy-3,4-dioxo-2-naphthalenyl)propanamide] yielded an EC50 of 0.98 µM. This lies in the sub-micromolar range.
Molecule `CC(C)(C)NC(=O)COc1ccc(CNc2ccc3[nH]c(O)nc3c2)cc1` [N-tert-butyl-2-[4-[[(2-oxidanylidene-1,3-dihydrobenzimidazol-5-yl)amino]methyl]phenoxy]ethanamide] registered an EC50 under setting [1] of 4.65 µM.
The molecule `O=C1c2ccccc2-c2onc3ccc(NCCCn4ccnc4)c1c23` [SMR000044769] had an EC50 of 4.05 µM.
The molecule `CSc1nnc2c3cc(C)ccc3n(Cc3ccccc3)c2n1` [SMR000046397] returned an EC50 under setting [1] of 29.4 µM. This counts as double-digit micromolar.
In turn, `c1ccc(-c2nc(N3CCCCCC3)c3ccccc3n2)nc1` [SMR000046752] had an EC50 under setting [1] of 19.8 µM.
For the molecule `CNc1ccc(Br)cc(C(=O)/C=C/c2cc(OC)ccc2OC)c1=O` [SMR000115626], under setting [1], the EC50 was determined as 8.97 µM.
`O=C(Nc1ccc2nc(-c3ccco3)c(-c3ccco3)nc2c1)NC1CC1` [SMR000118524] returned an EC50 under setting [1] of 9.26 µM.
Take `CCOC(=O)C1=C(Cc2ccc(OC)cc2)C(=O)c2ccccc2C1=O` [SMR000136995]: the response under setting [1] was half-maximal at 13.6 µM (EC50).
On the same count and under the same terms, the value for `O=C(Nc1cccc(C(F)(F)F)c1)c1ccc2nc(-c3ccco3)c(-c3ccco3)nc2c1` [SMR000142217] was 10.9 µM; that for `COC(=O)c1c(C(=O)OC)c2cccc3cc(-c4ccccc4)c4ccc1c4n32` [SMR000161417] was 1.8 µM.
With `Nc1ccc(C2=Nc3cccc4cccc(c34)N2)cc1` [SMR000175908], under setting [1], the EC50 came to 18.1 µM.
Regarding `C#CCn1cc(C=C2C(=O)c3ccccc3C2=O)c2ccccc21` [SMR000196125], the EC50 under setting [1] came to 13.8 µM.
The molecule `Cc1ccc(C=NNC(=O)CSc2nnc(-c3ccc(Cl)cc3)n2-c2ccccc2)o1` [SMR000218122] displayed an EC50 under setting [1] of 8.45 µM. This EC50 is about 1.6-fold lower than that of the molecule before.
`Nc1c(C(=O)NCC2CCCO2)sc2nc3c(c(-c4ccco4)c12)CC/C3=C\c1ccco1` (stereo not given) [SMR000259502] had an EC50 of 5.26 µM.
For `Nc1c(C(=O)NC2CC2)sc2nc3c(c(-c4ccco4)c12)CC/C3=C/c1ccco1` [SMR000259554], a half-maximal effect (EC50) was put at 4.67 µM.
Consider `O=C1c2ccccc2-c2onc3ccc(N4CCCC4)c1c23` [SMR000279741], for which the EC50 under setting [1] worked out at 27.9 µM. In other words, the double-digit micromolar range.
Take `CC(=NNC(=O)c1cc(O)c(O)c(O)c1)c1ccc([N+](=O)[O-])cc1` [SMR000312589]: the EC50 was 5.96 µM.
Regarding `CCN1/C(=C/C(C)=C/c2sc3ccccc3[n+]2CC)Sc2ccccc21` [SMR000354813], the EC50 came to 22.4 µM.
As for `CCN(CC)C(=O)COC(=O)c1cc(-c2ccco2)nc2ccccc12` [SMR000377201], under setting [1], the EC50 turned out to be 4.95 µM.
`CCOC(=O)c1nc(Nc2ccc(C(=O)OC)cc2)c2ccccc2n1` [ethyl 4-(4-methoxycarbonylanilino)quinazoline-2-carboxylate] returned an EC50 under setting [1] of 15.2 µM.
`CN(N=Cc1ccncc1)C1=NS(=O)(=O)c2ccccc21` [isonicotinaldehyde (1,1-dioxido-1,2-benzisothiazol-3-yl)(methyl)hydrazone]: under setting [1], a half-maximal response (EC50) required 2.44 µM. Compared with the last molecule, the EC50 is about 6.2-fold lower.

The values above are taken from BindingDB's records for doi:10.7270/Q2B27SQ0 (Nmmlsc, 2008).
